Publication PMC4508061, “Selectivity Profiling and Biological Activity of Novel β-Carbolines as Potent and Selective DYRK1 Kinase Inhibitors” (PLoS ONE, 2015)

What was measured:
Cell viability XTT assay = type: cell-based; details: human, SH-SY5Y cells, read-out: Viability of treated cells relative to untreated control
HIPK2 = HIPK2 (Homo sapiens, UniProt Q9H2X6); test: Kinase-GLO luminescent kinase assay; type: biochemical; design: made in house; host or cells: E. coli; details: 10 μM compound; means of at least 3 measurements
Method in brief: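 E. coli-expressed GST fusions (DYRK1A-ΔC, DYRK1B and HIPK2 catalytic domains, DYRK2) assayed in 25 mM Hepes pH 7.4, 5 mM MgCl2, 5 μM ATP with DYRKtide (20 μM for DYRKs, 100 μM for HIPK2). Kinase dosed to consume ~90% ATP; 30 min at room temperature, remaining ATP read by Kinase-GLO luminescence.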

AKT1 = AKT1 (Homo sapiens, UniProt P31749); test: ProQinase radiometric kinase panel; details: mean of 2 exp.
AXL = AXL (Homo sapiens, UniProt P30530); test: ProQinase radiometric kinase panel; details: mean of 2 exp.
BLK = BLK (Homo sapiens, UniProt P51451); test: ProQinase radiometric kinase panel; details: mean of 2 exp.
BRSK1 = BRSK1 (Homo sapiens, UniProt Q8TDC3); test: ProQinase radiometric kinase panel; details: mean of 2 exp.
BTK = BTK (Homo sapiens, UniProt Q06187); test: ProQinase radiometric kinase panel; details: mean of 2 exp.
CAMK4 = CAMK4 (Homo sapiens, UniProt Q16566); test: ProQinase radiometric kinase panel; details: mean of 2 exp.
CAMKK2 = CAMKK2 (Homo sapiens, UniProt Q96RR4); test: ProQinase radiometric kinase panel; details: mean of 2 exp.
CDK1/CycB1 = CDK1/CycB1 (Homo sapiens, UniProt P06493); test: ProQinase radiometric kinase panel; details: mean of 2 exp.
CDK3/CycE1 = CDK3/CycE1 (Homo sapiens, UniProt Q00526); test: ProQinase radiometric kinase panel; details: mean of 2 exp.
CDK4/CycD3 = CDK4/CycD3 (Homo sapiens, UniProt P11802); test: ProQinase radiometric kinase panel; details: mean of 2 exp.
CK1-gamma2 = CK1-gamma2 (Homo sapiens, UniProt P78368); test: ProQinase radiometric kinase panel; details: mean of 2 exp.
CK1-gamma3 = CK1-gamma3 (Homo sapiens, UniProt Q9Y6M4); test: ProQinase radiometric kinase panel; details: mean of 2 exp.
DAPK1 = DAPK1 (Homo sapiens, UniProt P53355); test: ProQinase radiometric kinase panel; details: mean of 2 exp.
EPHA4 = EPHA4 (Homo sapiens, UniProt P54764); test: ProQinase radiometric kinase panel; details: mean of 2 exp.
HIPK1 = HIPK1 (Homo sapiens, UniProt Q86Z02); test: ProQinase radiometric kinase panel; details: mean of 2 exp.
JAK1 = JAK1 (Homo sapiens, UniProt P23458); test: ProQinase radiometric kinase panel; details: mean of 2 exp.
JNK2 = JNK2 (Homo sapiens, UniProt P45984); test: ProQinase radiometric kinase panel; details: mean of 2 exp.
Experimental: Gini coefficients were calculated and the Lorenz curve (Fig 3B) was plotted by applying the Microsoft Excel spreadsheet provided by Graczyk [44].
radiometric protein kinase assays.

LIMK2 = LIMK2 (Homo sapiens, UniProt P53671); test: ProQinase radiometric kinase panel; details: mean of 2 exp.
MAP3K11 = MAP3K11 (Homo sapiens, UniProt Q16584); test: ProQinase radiometric kinase panel; details: mean of 2 exp.
MAP3K9 = MAP3K9 (Homo sapiens, UniProt P80192); test: ProQinase radiometric kinase panel; details: mean of 2 exp.
MKNK1 = MKNK1 (Homo sapiens, UniProt Q9BUB5); test: ProQinase radiometric kinase panel; details: mean of 2 exp.
MKNK2 = MKNK2 (Homo sapiens, UniProt Q9HBH9); test: ProQinase radiometric kinase panel; details: mean of 2 exp.
p38-delta = p38-delta (Homo sapiens, UniProt O15264); test: ProQinase radiometric kinase panel; details: mean of 2 exp.
PIM1 = PIM1 (Homo sapiens, UniProt P11309); test: ProQinase radiometric kinase panel; details: mean of 2 exp.
PKC-delta = PKC-delta (Homo sapiens, UniProt Q05655); test: ProQinase radiometric kinase panel; details: mean of 2 exp.
ROCK2 = ROCK2 (Homo sapiens, UniProt O75116); test: ProQinase radiometric kinase panel; details: mean of 2 exp.
STK33 = STK33 (Homo sapiens, UniProt Q9BYT3); test: ProQinase radiometric kinase panel; details: mean of 2 exp.
TIE2 = TIE2 (Homo sapiens, UniProt Q02763); test: ProQinase radiometric kinase panel; details: mean of 2 exp.
TRK-A = TRK-A (Homo sapiens, UniProt P04629); test: ProQinase radiometric kinase panel; details: mean of 2 exp.
ZAP70 = ZAP70 (Homo sapiens, UniProt P43403); test: ProQinase radiometric kinase panel; details: mean of 2 exp.

Chain of MAP3K9 (P80192 whole entry): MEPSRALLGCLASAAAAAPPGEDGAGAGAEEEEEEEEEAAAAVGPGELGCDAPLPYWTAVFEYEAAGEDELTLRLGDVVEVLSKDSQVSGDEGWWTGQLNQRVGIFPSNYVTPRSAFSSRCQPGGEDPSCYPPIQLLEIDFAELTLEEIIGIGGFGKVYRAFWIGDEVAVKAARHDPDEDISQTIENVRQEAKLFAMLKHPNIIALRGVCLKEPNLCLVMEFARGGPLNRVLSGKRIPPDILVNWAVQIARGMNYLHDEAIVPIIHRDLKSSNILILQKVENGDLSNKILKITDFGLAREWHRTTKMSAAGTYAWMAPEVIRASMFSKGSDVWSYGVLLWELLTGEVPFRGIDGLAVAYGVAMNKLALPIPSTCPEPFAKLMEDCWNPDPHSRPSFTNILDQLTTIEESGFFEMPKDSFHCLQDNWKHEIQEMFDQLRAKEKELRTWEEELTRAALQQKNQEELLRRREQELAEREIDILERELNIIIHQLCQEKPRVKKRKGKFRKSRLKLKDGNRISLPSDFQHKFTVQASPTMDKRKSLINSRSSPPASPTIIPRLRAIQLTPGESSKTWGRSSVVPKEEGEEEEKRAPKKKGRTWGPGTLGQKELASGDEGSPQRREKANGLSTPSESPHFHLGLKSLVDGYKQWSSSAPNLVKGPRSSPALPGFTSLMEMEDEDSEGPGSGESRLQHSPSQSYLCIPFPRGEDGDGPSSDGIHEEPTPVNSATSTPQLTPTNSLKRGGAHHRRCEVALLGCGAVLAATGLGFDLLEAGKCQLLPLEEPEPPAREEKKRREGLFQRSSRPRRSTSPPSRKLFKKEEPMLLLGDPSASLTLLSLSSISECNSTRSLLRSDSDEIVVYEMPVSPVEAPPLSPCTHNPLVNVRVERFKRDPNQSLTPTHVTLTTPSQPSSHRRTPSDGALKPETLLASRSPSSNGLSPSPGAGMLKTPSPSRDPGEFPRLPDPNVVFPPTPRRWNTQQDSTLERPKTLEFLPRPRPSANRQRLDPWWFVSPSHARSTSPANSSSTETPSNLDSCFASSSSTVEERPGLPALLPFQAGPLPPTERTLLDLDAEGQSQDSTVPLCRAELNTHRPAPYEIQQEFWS
Chain of HIPK2 (Q9H2X6 180-533): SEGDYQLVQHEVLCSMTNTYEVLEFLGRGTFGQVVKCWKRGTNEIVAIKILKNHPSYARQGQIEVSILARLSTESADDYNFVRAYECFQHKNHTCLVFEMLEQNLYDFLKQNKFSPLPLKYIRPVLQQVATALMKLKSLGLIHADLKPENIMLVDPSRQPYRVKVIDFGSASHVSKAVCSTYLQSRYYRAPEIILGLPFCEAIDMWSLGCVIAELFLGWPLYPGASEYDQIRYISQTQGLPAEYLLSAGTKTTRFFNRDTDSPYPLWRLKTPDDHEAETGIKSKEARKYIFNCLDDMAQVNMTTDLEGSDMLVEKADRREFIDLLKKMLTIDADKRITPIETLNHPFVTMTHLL
Chain of LIMK2 (P53671 whole entry): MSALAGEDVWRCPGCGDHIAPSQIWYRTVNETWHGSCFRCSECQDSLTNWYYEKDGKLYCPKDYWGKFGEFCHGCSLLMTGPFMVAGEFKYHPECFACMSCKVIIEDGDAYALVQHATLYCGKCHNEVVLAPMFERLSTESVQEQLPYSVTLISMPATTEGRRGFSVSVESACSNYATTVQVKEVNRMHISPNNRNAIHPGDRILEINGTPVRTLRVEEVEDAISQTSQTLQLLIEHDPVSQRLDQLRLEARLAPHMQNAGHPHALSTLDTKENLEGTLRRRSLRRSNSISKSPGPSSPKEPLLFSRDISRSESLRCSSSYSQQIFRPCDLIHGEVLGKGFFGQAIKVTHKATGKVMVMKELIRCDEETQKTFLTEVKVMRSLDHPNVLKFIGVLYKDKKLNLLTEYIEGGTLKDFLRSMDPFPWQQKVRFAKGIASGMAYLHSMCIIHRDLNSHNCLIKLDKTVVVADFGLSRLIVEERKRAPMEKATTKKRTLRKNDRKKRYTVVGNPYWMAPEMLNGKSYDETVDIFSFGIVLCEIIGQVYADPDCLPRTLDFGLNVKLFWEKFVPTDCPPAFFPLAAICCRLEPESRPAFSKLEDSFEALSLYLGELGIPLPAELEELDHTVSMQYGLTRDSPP
Chain of DAPK1 (P53355 whole entry): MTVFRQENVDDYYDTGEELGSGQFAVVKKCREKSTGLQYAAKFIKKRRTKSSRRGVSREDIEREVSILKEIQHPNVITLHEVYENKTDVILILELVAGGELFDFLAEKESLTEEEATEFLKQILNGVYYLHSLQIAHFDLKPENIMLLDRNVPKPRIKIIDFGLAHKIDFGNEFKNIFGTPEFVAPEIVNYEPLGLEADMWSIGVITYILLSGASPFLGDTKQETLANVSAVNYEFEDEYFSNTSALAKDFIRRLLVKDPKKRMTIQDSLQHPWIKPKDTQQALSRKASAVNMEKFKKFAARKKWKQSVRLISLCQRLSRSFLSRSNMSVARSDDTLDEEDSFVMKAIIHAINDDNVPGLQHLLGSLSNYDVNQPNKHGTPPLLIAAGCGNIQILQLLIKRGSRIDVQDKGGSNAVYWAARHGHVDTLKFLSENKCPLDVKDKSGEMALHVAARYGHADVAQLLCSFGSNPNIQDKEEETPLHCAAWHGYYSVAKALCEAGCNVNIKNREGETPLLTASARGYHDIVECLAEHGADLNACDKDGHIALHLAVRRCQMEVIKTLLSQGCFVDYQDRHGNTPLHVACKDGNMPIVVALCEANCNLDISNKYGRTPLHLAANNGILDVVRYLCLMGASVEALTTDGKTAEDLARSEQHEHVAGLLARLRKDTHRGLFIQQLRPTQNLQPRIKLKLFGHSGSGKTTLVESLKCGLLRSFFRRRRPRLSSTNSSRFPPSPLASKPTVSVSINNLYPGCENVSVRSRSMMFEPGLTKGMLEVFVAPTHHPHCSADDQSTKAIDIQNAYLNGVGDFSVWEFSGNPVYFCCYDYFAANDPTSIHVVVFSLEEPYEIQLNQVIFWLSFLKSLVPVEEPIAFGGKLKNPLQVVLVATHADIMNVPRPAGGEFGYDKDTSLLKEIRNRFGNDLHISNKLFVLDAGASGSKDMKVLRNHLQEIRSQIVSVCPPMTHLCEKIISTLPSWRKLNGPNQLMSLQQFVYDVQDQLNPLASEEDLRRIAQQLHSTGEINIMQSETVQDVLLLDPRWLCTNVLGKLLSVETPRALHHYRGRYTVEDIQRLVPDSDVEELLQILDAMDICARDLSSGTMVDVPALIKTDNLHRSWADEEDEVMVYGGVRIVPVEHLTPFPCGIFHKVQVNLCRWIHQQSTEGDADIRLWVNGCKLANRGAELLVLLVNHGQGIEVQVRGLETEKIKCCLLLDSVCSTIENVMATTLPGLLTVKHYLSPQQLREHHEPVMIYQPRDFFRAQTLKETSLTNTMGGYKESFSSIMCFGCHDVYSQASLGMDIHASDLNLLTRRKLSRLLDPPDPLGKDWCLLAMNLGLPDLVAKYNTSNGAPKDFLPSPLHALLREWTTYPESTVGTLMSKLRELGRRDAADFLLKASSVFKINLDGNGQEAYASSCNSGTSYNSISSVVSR
Chain of ROCK2 (O75116 whole entry): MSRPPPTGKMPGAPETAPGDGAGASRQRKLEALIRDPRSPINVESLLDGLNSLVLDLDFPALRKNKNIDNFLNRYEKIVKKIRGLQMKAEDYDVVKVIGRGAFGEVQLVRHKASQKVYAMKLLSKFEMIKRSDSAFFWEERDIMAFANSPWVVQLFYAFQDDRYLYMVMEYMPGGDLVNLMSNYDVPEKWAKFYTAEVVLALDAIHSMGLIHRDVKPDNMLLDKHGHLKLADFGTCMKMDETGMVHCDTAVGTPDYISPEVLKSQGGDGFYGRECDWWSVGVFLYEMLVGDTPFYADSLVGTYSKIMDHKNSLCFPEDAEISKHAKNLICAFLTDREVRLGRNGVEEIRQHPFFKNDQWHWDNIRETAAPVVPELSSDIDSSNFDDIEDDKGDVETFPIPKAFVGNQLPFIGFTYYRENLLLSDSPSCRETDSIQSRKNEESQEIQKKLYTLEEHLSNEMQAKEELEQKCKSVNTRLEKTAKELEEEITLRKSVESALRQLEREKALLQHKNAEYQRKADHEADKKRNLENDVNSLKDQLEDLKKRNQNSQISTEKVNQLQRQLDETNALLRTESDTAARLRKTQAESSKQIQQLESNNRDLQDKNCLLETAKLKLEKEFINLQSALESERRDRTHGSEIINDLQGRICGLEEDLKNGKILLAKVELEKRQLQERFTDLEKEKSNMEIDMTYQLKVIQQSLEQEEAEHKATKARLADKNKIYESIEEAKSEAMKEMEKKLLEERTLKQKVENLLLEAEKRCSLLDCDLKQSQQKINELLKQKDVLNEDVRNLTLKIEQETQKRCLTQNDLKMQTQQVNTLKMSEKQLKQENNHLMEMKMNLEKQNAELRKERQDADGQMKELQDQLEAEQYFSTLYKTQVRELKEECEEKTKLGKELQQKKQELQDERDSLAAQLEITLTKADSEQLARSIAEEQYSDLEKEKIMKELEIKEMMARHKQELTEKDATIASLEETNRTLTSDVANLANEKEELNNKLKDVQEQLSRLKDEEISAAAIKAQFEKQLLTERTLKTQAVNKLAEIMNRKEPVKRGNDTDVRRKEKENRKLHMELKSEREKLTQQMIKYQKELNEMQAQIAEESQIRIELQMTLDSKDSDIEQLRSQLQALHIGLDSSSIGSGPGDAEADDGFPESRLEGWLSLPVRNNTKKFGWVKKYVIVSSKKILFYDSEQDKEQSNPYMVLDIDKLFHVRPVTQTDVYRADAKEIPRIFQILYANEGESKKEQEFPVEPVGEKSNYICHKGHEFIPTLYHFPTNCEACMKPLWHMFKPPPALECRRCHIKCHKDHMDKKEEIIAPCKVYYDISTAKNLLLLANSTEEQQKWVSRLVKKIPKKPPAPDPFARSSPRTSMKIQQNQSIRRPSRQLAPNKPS

Which results are given for `COc1ccc2c3ccnc(Cl)c3n(CC#N)c2c1` [AnnH75]?
viability at 3 days, 1 µM (Cell viability XTT assay; 1 μM): 89%; viability at 3 days, 3 µM (Cell viability XTT assay; 3 μM): 73%; Residual activity (% of control) HIPK2 (HIPK2): 85 % of control; residual activity at 1 µM, Mean (AKT1): 102 % of control; residual activity at 1 µM, Mean (AXL): 95 % of control; residual activity at 1 µM, Mean (BLK): 100 % of control; residual activity at 1 µM, Mean (BRSK1): 107 % of control; residual activity at 1 µM, Mean (BTK): 96 % of control; residual activity at 1 µM, Mean (CAMK4): 111 % of control; residual activity at 1 µM, Mean (CAMKK2): 86 % of control; residual activity at 1 µM, Mean (CDK1/CycB1): 81 % of control; residual activity at 1 µM, Mean (CDK3/CycE1): 94 % of control; residual activity at 1 µM, Mean (CDK4/CycD3): 89 % of control; residual activity at 1 µM, Mean (CK1-gamma2): 82 % of control; residual activity at 1 µM, Mean (CK1-gamma3): 93 % of control; residual activity at 1 µM, Mean (DAPK1): 91 % of control; residual activity at 1 µM, Mean (EPHA4): 99 % of control; residual activity at 1 µM, Mean (HIPK1): 91 % of control; residual activity at 1 µM, Mean (JAK1): 93 % of control; residual activity at 1 µM, Mean (JNK2): 100 % of control; residual activity at 1 µM, Mean (LIMK2): 94 % of control; residual activity at 1 µM, Mean (MAP3K11): 98 % of control; residual activity at 1 µM, Mean (MAP3K9): 100 % of control; residual activity at 1 µM, Mean (MKNK1): 103 % of control; residual activity at 1 µM, Mean (MKNK2): 92 % of control; residual activity at 1 µM, Mean (p38-delta): 89 % of control; residual activity at 1 µM, Mean (PIM1): 41 % of control; residual activity at 1 µM, Mean (PKC-delta): 105 % of control; residual activity at 1 µM, Mean (ROCK2): 79 % of control; residual activity at 1 µM, Mean (STK33): 87 % of control; residual activity at 1 µM, Mean (TIE2): 84 % of control; residual activity at 1 µM, Mean (TRK-A): 84 % of control; residual activity at 1 µM, Mean (ZAP70): 97 % of control
